Experiments:
[1] = Photostability under continuous light irradiation; type: physicochemical; details: 50 µM, buffer, 37°C, continuous irradiation (Xe lamp, 20 W), λexc 450 nm, λem 510 nm, n=6
Method: S u p p l emen t ary Figure 7. Nor m alized f luoresc ence em is s ion of Trp-BODIPY PLUS ( 50 µ M , buf f er ) at 37° C und er c o nt inu ous l ight ir r adi at ion ( Xe l am p, 20 W ) . λexc: 450 nm; λem: 510 nm . V alues pr es ent e d as m eans ±S D ( n= 6).
Supplementary Figure 8 . Linear r egr es s ions of t he p eak a bs or b anc e ar ea ( m A U) of T rp-BO DI PY PLUS in DMSO (re d) an d PBS (c ont a ini ng ≤ 1% DM S O , bl ue) at d if f er ent c onc ent r at i ons of t he ami no ac id. Valu es wer e det ermi ned by HPLC-MS us ing UV det ec t ion at 51 0 nm . R2 v alues : 0. 99 9 ( r ed) , 0. 99 4 ( blu e) .
(also on this page, place not known: time (min) Normalized photostability Normalized fluorescence emission (50 µM, buffer) 37°C under continuous light irradiation (Xe lamp, W) nm; nm. Values presented means±SD (n=6). µM) Peak area (mAU) DMSO) Supplementary 8. regressions the peak absorbance area (mAU) Trp-BODIPY DMSO (red) and (containing ≤1% DMSO, blue) different concentrations the amino acid. Values were determined using detection 510 nm. values: 0.999 (red), 0.994 (blue).)

[2] = Fluorogenic behavior in phosphatidylcholine liposome suspensions; type: physicochemical; details: PBS vs phosphatidylcholine liposome suspensions; λexc 450 nm, λem 510 nm
Method: Figure 1 a) Chemical structure of the Fmoc‐protected Trp‐BODIPY PLUS amino acid for general peptide synthesis. b) Fluorescence emission spectra of Trp‐BODIPY PLUS (25 μM) in phosphate buffer saline (PBS) suspensions with increasing content of phosphatidylcholine liposomes. λ exc: 450 nm. Inset) UV‐irradiated pictograms of Trp‐BODIPY PLUS in hydrophilic (bottom) and hydrophobic (top) environments. c) Peptide sequences synthesized with Trp‐BODIPY and Trp‐BODIPY PLUS, their biological targets, solid supports, protected amino acids and purities after SPPS. RA: Rink Amide, TG: TentaGel, CTC: chlorotrityl, PS: polystyrene,^[a] not determined due to degradation of BODIPY. d) Synthetic scheme and structures of KP‐10 analogues with Trp‐BODIPY PLUS instead of the native Trp (peptide 7) or at the N‐terminal end (peptide 8).
BODIPY PLUS (10 µM) in phosph ate buffer salin e (PBS, white bars) an d phosp hat idy lcho lin e li posom e susp ensi ons (gr ey bars). λ exc: 45 0 nm; λem: 51 0 nm.
V alues pr es ent e d as m ea ns ±S E M ( n= 3) .
Tr p-BODIPY P LU S (-20 °C, solid)
Tr p-BODIPY P LU S (-20 °C, DMSO)
S u p p l emen t ary F i gu re 6 . HP LC tr ac es of T r p-B O DI P Y P LUS aft er 5 m ont hs st or age in t he f r eez er as po wder ( t op) and as 5 mM DMSO s olut i ons ( bot t om ). […]
Sp ectro sco p y mea su rem en ts. […]

[3] = Stability analysis of Trp-BODIPY FlAAs under SPPS conditions; details: for Stability (purity by HPLC-MS): 70 μM; for Stability (purity by HPLC-MS) / Chemical stability (HPLC-MS): r.t.; for Chemical stability (HPLC-MS): 70 µM;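 for all read-outs here: chemical integrity of the BODIPY-labelled tryptophan amino acids checked after exposure to reagents used in solid-phase peptide synthesis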
Method: Next, we studied the stability of Trp‐BODIPY PLUS in TFA and compared it to that of Trp‐BODIPY (Table 2).
Analysis of t he chemical st abilit y of T rp-BO DI PY and T rp-
BODIPY PLUS under conve nt ion al SPPS condit i ons. Amino aci ds were di lut ed w it h
dif f erent rea gent mixt ur es (70 µ M , f inal v olum e 10 0 uL) a nd st irre d at r. t . f or 1 h
( c ondit i ons A-B and E-H) or 5 m i n ( c o ndit i ons C an d D).
Fmoc-T rp -BO DI PY(X)2-OH
En t ry Conditions X = F X = CN

Fluorogenic behavior (in words) [2]: strong fluorogenic behavior | Stability (purity by HPLC-MS) ([3]; 2% N2H4 in DMF, 60 min): > 95% | Stability (purity by HPLC-MS) ([3]; 95% TFA, 2.5% DTT, 60 min, DCM): > 95% | Stability (purity by HPLC-MS) ([3]; 95% TFA, 2.5% H2O, 60 min, DCM): > 95% | Stability (purity by HPLC-MS) ([3]; 95% TFA, 2.5% TIS, 60 min, DCM): > 95% | Stability (purity by HPLC-MS) ([3]; 95% TFA, 5 min, DCM): > 95% | Stability in TFA (in words) ([3]; 95% TFA, 1 h): fully resistant to TFA even after 1 h | Stability (purity by HPLC-MS) ([3]; 95% TFA, 60 min, DCM): > 95% | Stability (purity by HPLC-MS) ([3]; I2 (5 eq) in MeOH, 60 min): 6% | Stability (purity by HPLC-MS) ([3]; Pd(PPh3)4 (0.1 eq), PhSiH3 (10 eq), 60 min, DCM): > 95% | Chemical stability (HPLC-MS) ([3]; Supplementary Table 2 entry A: 1% TFA, 2.5% DTT, 1 h): > 95% | Chemical stability (HPLC-MS) ([3]; Supplementary Table 2 entry B: 5% TFA, 2.5% DTT, 1 h): > 95% | Chemical stability (HPLC-MS) ([3]; Supplementary Table 2 entry C: 95% TFA, 2.5% DTT, 5 min): > 95% | Chemical stability (HPLC-MS) ([3]; Supplementary Table 2 entry D: 20% piperidine: DMF, 5 min): > 93% | Chemical stability (HPLC-MS) ([3]; Supplementary Table 2 entry E: 5% NaHCO3 (aq), 1 h): > 95% | Chemical stability (HPLC-MS) ([3]; Supplementary Table 2 entry F: 5% Na2CO3 (aq), 1 h): > 95% | Chemical stability (HPLC-MS) ([3]; Supplementary Table 2 entry G: 1% DIPEA: DMF, 1 h): > 95% | Chemical stability (HPLC-MS) ([3]; Supplementary Table 2 entry H: 0.1 M HOBt: TFE, 1 h): > 95% | Stability (purity by HPLC-MS) ([3]; TBAF (3 eq), 60 min, DCM): > 95% | Stability to iodine (in words) ([3]; presence of iodine): degraded in the presence of iodine
Compound: CC1=CC(C)=[N+]2C1=C(c1cccc(-c3[nH]c4ccccc4c3C[C@H](NC(=O)OCC3c4ccccc4-c4ccccc43)C(=O)O)c1)c1c(C)cc(C)n1[B-]2(C#N)C#N [Trp-BODIPY PLUS]
Photostability (in words) [1]: suitable solubility and photo‐ and chemical stability for long‐term storage

Source: publication PMC10947197, “Acid‐Resistant BODIPY Amino Acids for Peptide‐Based Fluorescence Imaging of GPR54 Receptors in Pancreatic Islets” (Angewandte Chemie (International Ed. in English), 2023)
